Data set [1] has as its target T1, CFTR (Homo sapiens, UniProt P13569). Briefly: standard Ussing Chamber Assay for CFTR potentiator activity. The data set is classed as cell-based. The protocol: tert-Butyl N-[(6R,12R)-6-benzyloxy-12-methyl-6,15-bis(trifluoromethyl)-13,19-dioxa-3,4,18-triazatricyclo[12.3.1.12,5]nonadeca-1(18),2,4,14,16-pentaen-17-yl]-N-tert-butoxycarbonyl-carbamate (8.6 g, 11.77 mmol) was dissolved in ethanol (172 mL) then the flask was cycled 3 times between vacuum/nitrogen. Treated the mixture with 10% Pd/C (50% water wet, 1.8 g of 5% w/w, 0.8457 mmol) then cycled 3 times between vacuum/nitrogen and 3 times between vacuum/hydrogen and then stirred vigorously under hydrogen (balloon) at room temperature for 18 h. The mixture was cycled 3 times between vacuum/nitrogen, filtered over Celite washing with ethanol and then the filtrate was evaporated to give 7.3 g of tert-butyl N-tert-butoxycarbonyl-N-[(6R,12R)-6-hydroxy-12-methyl-6,15-bis(trifluoromethyl)-13,19-dioxa-3,4,18-triazatricyclo[12.3.1.12,5]nonadeca-1(18),2,4,14,16-pentaen-17-yl]carbamate an off-white solid. 1H NMR and MS confirmed the expected product. CFTR modulatory activity was confirmed using a standard Ussing Chamber Assay for CFTR potentiator activity.
Target sequence in this assay (P13569 whole entry, species assumed): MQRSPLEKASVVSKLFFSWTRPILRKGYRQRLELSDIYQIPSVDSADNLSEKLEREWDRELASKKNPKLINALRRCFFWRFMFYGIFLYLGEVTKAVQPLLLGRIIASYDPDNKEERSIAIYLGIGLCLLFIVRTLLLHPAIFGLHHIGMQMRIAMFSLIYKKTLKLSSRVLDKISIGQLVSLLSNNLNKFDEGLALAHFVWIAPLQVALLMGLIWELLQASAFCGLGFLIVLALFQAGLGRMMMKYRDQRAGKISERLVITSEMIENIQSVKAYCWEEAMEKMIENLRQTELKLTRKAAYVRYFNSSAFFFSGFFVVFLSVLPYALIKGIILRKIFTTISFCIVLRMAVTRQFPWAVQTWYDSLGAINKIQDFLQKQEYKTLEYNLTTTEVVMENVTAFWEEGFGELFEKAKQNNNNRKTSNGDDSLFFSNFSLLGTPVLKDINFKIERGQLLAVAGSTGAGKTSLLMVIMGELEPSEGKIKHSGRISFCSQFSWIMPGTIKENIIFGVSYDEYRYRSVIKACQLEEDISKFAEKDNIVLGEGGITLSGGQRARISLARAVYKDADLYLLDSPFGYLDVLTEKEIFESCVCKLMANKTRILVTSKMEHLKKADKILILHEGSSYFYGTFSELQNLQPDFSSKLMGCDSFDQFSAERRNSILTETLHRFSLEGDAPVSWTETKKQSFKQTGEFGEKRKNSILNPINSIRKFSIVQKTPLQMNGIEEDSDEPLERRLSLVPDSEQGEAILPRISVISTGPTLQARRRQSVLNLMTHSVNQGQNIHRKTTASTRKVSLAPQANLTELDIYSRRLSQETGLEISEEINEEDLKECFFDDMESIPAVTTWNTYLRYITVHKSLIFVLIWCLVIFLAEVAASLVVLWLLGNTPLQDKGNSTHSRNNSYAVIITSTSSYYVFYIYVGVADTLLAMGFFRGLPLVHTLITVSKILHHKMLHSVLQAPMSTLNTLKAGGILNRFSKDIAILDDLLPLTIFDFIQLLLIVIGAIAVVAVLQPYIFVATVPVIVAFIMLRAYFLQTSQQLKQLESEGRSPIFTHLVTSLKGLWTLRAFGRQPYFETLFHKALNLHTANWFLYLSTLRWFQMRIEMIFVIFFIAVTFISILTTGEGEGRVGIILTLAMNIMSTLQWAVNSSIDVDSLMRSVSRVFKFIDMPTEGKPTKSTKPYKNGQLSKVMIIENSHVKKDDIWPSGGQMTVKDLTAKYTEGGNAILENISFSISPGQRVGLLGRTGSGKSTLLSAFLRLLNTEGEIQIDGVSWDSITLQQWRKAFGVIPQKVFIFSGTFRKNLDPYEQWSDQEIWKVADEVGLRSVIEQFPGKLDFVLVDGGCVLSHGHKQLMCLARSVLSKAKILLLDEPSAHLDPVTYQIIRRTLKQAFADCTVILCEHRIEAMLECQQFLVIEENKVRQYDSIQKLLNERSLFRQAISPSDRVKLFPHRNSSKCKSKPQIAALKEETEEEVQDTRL

The conditions of data set [2]: amide bond, 13-membered ring, HATU/DIEA, DMF.
Data set [3] has as its target T1, CFTR. Nature of the data set: Membrane Potential Dye, Enteroid Assay A. Particulars: for EC50: read-out: Ent. A EC50. The class given is cell-based. Put shortly: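 Primary human intestinal enteroid cells exposed to compound for 18–24 hours at 37 °C, then loaded 25 min with methyl oxonol membrane potential dye plus CaCC inhibitors. Chloride transport triggered in chloride-free buffer with 10 μM forskolin, 100 μM IBMX and 300 nM Compound III, fluorescence read 15 min; % Activity relative to a triple-combination corrector/potentiator control.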
Target sequence in this assay (P13569 with tags, fused parts or gaps DEL508-508): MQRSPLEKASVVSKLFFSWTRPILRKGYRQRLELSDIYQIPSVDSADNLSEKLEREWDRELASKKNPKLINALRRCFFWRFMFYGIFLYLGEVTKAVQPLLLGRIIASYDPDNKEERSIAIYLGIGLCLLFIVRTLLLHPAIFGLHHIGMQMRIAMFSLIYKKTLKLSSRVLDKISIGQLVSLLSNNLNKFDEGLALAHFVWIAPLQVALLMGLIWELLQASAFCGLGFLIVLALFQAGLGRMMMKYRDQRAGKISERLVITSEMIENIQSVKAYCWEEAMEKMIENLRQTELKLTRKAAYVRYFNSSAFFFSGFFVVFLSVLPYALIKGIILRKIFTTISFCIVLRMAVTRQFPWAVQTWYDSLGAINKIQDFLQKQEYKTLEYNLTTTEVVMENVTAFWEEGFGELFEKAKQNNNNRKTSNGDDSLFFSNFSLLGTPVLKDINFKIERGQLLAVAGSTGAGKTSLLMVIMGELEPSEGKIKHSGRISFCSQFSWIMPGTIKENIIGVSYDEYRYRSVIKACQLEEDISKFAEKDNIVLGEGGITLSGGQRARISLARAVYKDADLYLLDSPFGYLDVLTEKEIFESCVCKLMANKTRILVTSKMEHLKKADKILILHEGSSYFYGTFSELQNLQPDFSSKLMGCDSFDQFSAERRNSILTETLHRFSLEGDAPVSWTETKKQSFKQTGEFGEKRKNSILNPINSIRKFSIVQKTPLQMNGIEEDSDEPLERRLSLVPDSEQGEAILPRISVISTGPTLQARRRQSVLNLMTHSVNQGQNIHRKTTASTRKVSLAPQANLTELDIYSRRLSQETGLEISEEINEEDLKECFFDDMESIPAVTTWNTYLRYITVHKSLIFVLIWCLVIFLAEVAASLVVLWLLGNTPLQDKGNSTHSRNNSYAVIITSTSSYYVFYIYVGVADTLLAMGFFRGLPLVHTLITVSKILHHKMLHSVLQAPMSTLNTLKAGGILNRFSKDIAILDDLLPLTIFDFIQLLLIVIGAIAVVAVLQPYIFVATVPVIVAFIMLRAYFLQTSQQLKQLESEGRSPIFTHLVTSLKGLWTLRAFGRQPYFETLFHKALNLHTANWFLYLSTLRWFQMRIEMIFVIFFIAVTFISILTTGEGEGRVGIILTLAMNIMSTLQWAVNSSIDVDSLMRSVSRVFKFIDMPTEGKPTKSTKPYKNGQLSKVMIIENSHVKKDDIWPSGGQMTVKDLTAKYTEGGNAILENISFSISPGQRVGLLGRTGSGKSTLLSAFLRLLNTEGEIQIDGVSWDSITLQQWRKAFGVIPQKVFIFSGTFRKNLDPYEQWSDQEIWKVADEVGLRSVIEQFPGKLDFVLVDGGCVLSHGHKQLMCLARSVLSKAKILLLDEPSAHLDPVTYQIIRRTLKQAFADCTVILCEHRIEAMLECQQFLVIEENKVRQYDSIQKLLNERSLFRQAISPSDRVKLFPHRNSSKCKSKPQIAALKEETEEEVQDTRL

The target in data set [4] is T1, CFTR. Briefly: Membrane Potential Dye, Enteroid Assay B. The data set is classed as cell-based. Particulars: for EC50: read-out: Ent. B EC50. An outline of the steps: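 Activity given as % of a triple-combination reference (1 μM and 3 μM correctors, 300 nM acute potentiator). Enteroids were preincubated 18-24 h with compound; chloride efflux then measured 15 min by methyl oxonol fluorescence after forskolin/IBMX/Compound III stimulation in chloride-free buffer containing CaCCinh-A01 and Chicago Sky Blue.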
Target sequence in this assay (P13569 with tags, fused parts or gaps DEL508-508): as above

In data set [5] the target is T2, CFTR (Homo sapiens, UniProt P13569, DEL508-508).
T2 construct: human bronchial epithelial (HBE) cells derived from CF subjects heterozygous for F508del; endogenous in cells; host or cells: primary human bronchial epithelial cells from CF subjects (F508del/MF-HBE)
Nature of the data set: HBE2 assay: Ussing chamber assay of CFTR-mediated short-circuit currents (F508del/MF-HBE, with 44 nM potentiator). The class given is cell-based. Particulars: F508del/MF-HBE cells; single fixed concentration 3 μM with 44 nM (6R,12R)-17-amino-12-methyl-6,15-bis(trifluoromethyl)-...-pentaen-6-ol, 18-24 hours, 20% human serum. The method, then:
1. Ussing Chamber Assay of CFTR-mediated Short-circuit Currents
Ussing chamber experiments were performed using human bronchial epithelial (HBE) cells derived from CF subjects heterozygous for F508del and a minimal function CFTR mutation (F508del/MF-HBE) and cultured as previously described (Neuberger T, Burton B, Clark H, Van Goor F Methods Mol Biol 2011:741:39-54). After four days the apical media was removed, and the cells were grown at an air liquid interface for >14 days prior to use.
To isolate the CFTR-mediated short-circuit (ISC) current, F508del/MF-HBE grown on Costar® Snapwell™ cell culture inserts were mounted in an Ussing chamber and the transepithelial ISC was measured under voltage-clamp recording conditions (Vhold=0 mV) at 37° C. The basolateral solution contained (in mM) 145 NaCl, 0.83 K2HPO4, 3.3 KH2PO4, 1.2l MgCl2, 1.2 CaCl2), 10 Glucose, 10 HEPES (pH adjusted to 7.4 with NaOH) and the apical solution contained (in mM) 145 NaGluconate, 1.2 MgCl2, 1.2 CaCl2), 10 glucose, 10 HEPES (pH adjusted to 7.4 with NaOH) and 30 μM amiloride to block the epithelial sodium channel. […] The CFTR-mediated ISC (μA/cm^2) for each condition was determined from the peak forskolin response to the steady-state current following inhibition. […]
The activity of the CFTR corrector compounds on the CFTR-mediated ISC was determined in Ussing chamber studies as described above. […]

Read-outs that look alike come from different tables or passages of the source. Some results are limits rather than exact numbers.

T2 sequence (P13569 with tags, fused parts or gaps DEL508-508): as above

On to `C[C@@H]1CCCCC[C@](O)(C(F)(F)F)C2=NN=C(O2)c2nc(c(C(F)(F)F)cc2N)O1` [(6R,12R)-17-amino-12-methyl-6,15-bis(trifluoromethyl)-13,19-dioxa-3,4,18-triazatricyclo[12.3.1.12,5] nonadeca-1(18),2,4,14,16-pentaen-6-ol], for which the “CFTR modulatory activity (potentiator activity)” value on CFTR [1] is given as “confirmed”.

For the compound `Cc1cccc(C)c1-c1cc2nc(n1)NS(=O)(=O)c1cccc(c1)C(=O)N(C1CC3(CCN(C(=O)OC(C)(C)C)CC3)C1)[C@H](CC(C)C)CO2` [Compound 13, tert-Butyl 2-[(11R)-6-(2,6-dimethylphenyl)-11-isobutyl-2,2,13-trioxo-9-oxa-2λ^6-thia-3,5,12,19-tetrazatricyclo[12.3.1.14,8]nonadeca-1(18),4(19),5,7,14,16-hexaen-12-yl]-7-azaspiro[3.5]nonane-7-carboxylate], the ring closure, isolated yield in data set [2] (from Cc1cccc(C)c1-c1cc(OC[C@@H](CC(C)C)NC2CC3(CCN(C(=O)OC(C)(C)C)CC3)C2)nc(NS(=O)(=O)c2cccc(C(=O)O)c2)n1, 68.6 mM, 25.0 °C, 13.0 h) was 78%. At CFTR [3], the “Ent. A Max Activity (%)” value is “+++ (+++ is >60%)” and the EC50 (usually the concentration at which the effect is half-maximal) is under 1000 nM. Moreover, on CFTR [4], the “Ent. B Max Activity (%)” value is listed as “+++ (+++ is >60%)” and the EC50 is under 1000 nM.

Compound `Cc1cccc(C)c1-c1cc2nc(n1)NS(=O)(=O)c1cccc(c1)C(=O)N(C1CC3(CC3)C1)[C@H](CC1(C(F)(F)F)CC1)CO2` [Compound 198, (11R)-6-(2,6-Dimethylphenyl)-2,2-dioxo-12-spiro[2.3]hexan-5-yl-11-[[1-(trifluoromethyl)cyclopropyl]methyl]-9-oxa-2λ^6-thia-3,5,12,19-tetrazatricyclo[12.3.1.14,8]nonadeca-1(18),4(19),5,7,14,16-hexaen-13-one] gave a ring closure, isolated yield in data set [2] (from Cc1cccc(C)c1-c1cc(OC[C@@H](CC2(C(F)(F)F)CC2)NC2CC3(CC3)C2)nc(NS(=O)(=O)c2cccc(C(=O)O)c2)n1, 49.1 mM, 21.0 h) of 60%. Also, at CFTR [3], the “Ent. A Max Activity (%)” value is “+++ (+++ is >60%)” and the EC50 was under 1000 nM. Further, at CFTR [4], the “Ent. B Max Activity (%)” value was “+++ (+++ is >60%)” and the EC50 is under 1000 nM.

`Cc1cccc(C)c1-c1cc2nc(n1)NS(=O)(=O)c1cccc(c1)C(=O)N(C1CCCN(C)C1=O)[C@H](CC(C)(C)C)CO2` (stereo partly drawn) [Compound 507, (11R)-6-(2,6-Dimethylphenyl)-11-(2,2-dimethylpropyl)-12-(1-methyl-2-oxo-3-piperidyl)-2,2-dioxo-9-oxa-2λ^6-thia-3,5,12,19-tetrazatricyclo[12.3.1.14,8]nonadeca-1(18),4(19),5,7,14,16-hexaen-13-one]: the “HBE2 Activity at 3 μM” value at CFTR [5] was “+++ (+++ is >60%)”.

Consider `Cc1cccc(C)c1-c1cc2nc(n1)NS(=O)(=O)c1cccc(c1)C(=O)N(C1CCN(C)C1=O)[C@H](CC(C)(C)C)CO2` (stereo partly drawn) [Compound 508, (11R)-6-(2,6-Dimethylphenyl)-11-(2,2-dimethylpropyl)-12-(1-methyl-2-oxo-pyrrolidin-3-yl)-2,2-dioxo-9-oxa-2λ^6-thia-3,5,12,19-tetrazatricyclo[12.3.1.14,8]nonadeca-1(18),4(19),5,7,14,16-hexaen-13-one], for which the “HBE2 Activity at 3 μM” value at CFTR [5] is reported as “+++ (+++ is >60%)”.

(Values after patent publication US20230382925A1, “MODULATORS OF CYSTIC FIBROSIS TRANSMEMBRANE CONDUCTANCE REGULATOR” (VERTEX PHARMACEUTICALS INCORPORATED, priority 2020, published 2023).)
